In patent publication US20030186946A1, “Suppression of cytotoxic protein conformers” (priority 2002, published 2003):

Tests used:
RINm5F cells = experiment: Cytotoxicity assay in RINm5F cells (calcein-AM / ethidium homodimer-1 staining)
Description: Cell Culture and Cytotoxicity Assays. RINm5F cells were cultured in RPMI 1640 medium containing 10% fetal bovine serum, 290 μg/mL L-glutamine, 100 IU/mL penicillin and 100 μg/mL streptomycin. Cells were plated at a density of 15×1 cells per well, incubated for 48 h, rinsed with PBS and placed in fresh medium containing Congo red. Freshly prepared human amylin in Milli-Q water, was preincubated with Congo red for 30 min, then added to the cell culture medium to give a final concentration of 30 μM. Cells were treated for 22 h with human amylin in the presence or absence of 100 μM Congo red. Cell viability was determined by double-staining with calcein-AM and ethidium homodimer-1. Green fluorescence of live cells and red fluorescence marking nuclei of dead cells were simultaneously visualized using a Zeiss Axiovert S100 microscope equipped with a Zeiss filter set # 09. Photographs were taken at 400× magnification using a Zeiss AxioCam digital camera.
A. Representative fluorescence micrograph of RINm5F cells treated with 30 μM human amylin for 22 h and stained with calcein-AM and ethidium homodimer-1 to show live cells (green) and dead cells (red). […] B. A representative micrograph of RINm5F cells treated with 30 μM human amylin and 100 μM Congo red stained as above. […] The percentage of live cells was determined for cells treated for 22 h with vehicle; 30 μM human amylin; 30 μM human amylin in the presence of 100 μM Congo red; or 30 μM rat amylin. Experiments were repeated independently 10 times except for human amylin plus Congo red (A+CR) which was repeated five times. Error bars represent the s.e.m of live and dead cell counts over 6-12 fields per condition.

human amylin [1] = target: T1, human amylin (Homo sapiens, UniProt P10997); experiment: Circular dichroism assay of amylin conformation; format: biochemical; parameters: Amylin is a 37-residue; C-terminally amidated peptide having a disulfide bridge between the cysteines at residues 2 and 7; purchased Bachem Calif; (Torrance, Calif.); host or cells: chemical synthesis; conditions: for conformation of human amylin (circular dichroism): approximately 4 μM human amylin, 4% HFIP (FIG. 9E)
T1 sequence (P10997 34-70 limits assumed): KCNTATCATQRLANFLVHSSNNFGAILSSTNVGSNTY
Description: Preparation of monomeric human amylin. Human amylin (batch 0551805) was obtained from Bachem (Torrence, Calif.). Stock solutions of amylin were prepared as described by Padrick and Miranker, 2002. Human amylin was solubilised in 6M guanidine HCL/50 mM potassium phosphate, pH 6.0, and loaded onto a C18 reversed-phase spin column (Harvard Biosciences). The column was then washed sequentially with 10% Acetonitrile, 0.2% trifluoroacetic acid and water. Monomeric amylin was eluted in 100% HFIP (hexafluoroisopropanol). This stock solution of amylin was then used for all Circular Dichroism experiments.
Circular Dichroism Assay. Circular dichroism spectra were measured on a Pi-Star 180 spectrometer (Applied Photophysics, Leatherhead, UK). Measurements were carried out in either 100% HFIP or 100 mM potassium chloride/50 mM potassium phosphate buffer (pH 7.4) and 2.5% HFIP at 25° C. A stock solution of monomeric human amylin was diluted into buffer to a final concentration of 2.5% HFIP and approximately 5 μM amylin to initiate amylin fibril formation. Spectra were collected at 1 nm intervals with a sample period of 25 μs and adaptive sampling of ±0.01 mdeg. Measurements were recorded immediately following addition of the human amylin stock solution to phosphate buffer in the presence or absence of Congo red or amaranth.
Human amylin (100 μg) was purified on a C18 spin column to give a stock solution in 100% HFIP as described in the methods. A spectrum of this stock solution was collected at 1 nm intervals in a 0.1 cm path length quartz cell (FIG. 9B). The stock solution of monomeric amylin in 100% HFIP was diluted to 2.5% HFIP in 100 mM potassium chloride/50 mM potassium phosphate buffer (pH 7.4). Human amylin concentration was approximately 5 μM. A spectrum was collected at 1 nm intervals in a 0.5 cm path length quartz cell in the absence (FIG. 9C) or presence of 20-fold molar excess of Congo red over human amylin (FIG. 9D). The stock solution of monomeric amylin in 100% HFIP was diluted to 4% HFIP in 100 mM potassium chloride/50 mM potassium phosphate buffer (pH 7.4) containing decreasing concentrations of Congo red as indicated in the Figure. Human amylin concentration was approximately 4 μM. Spectra were collected at 1 nm intervals in a 0.1 cm path length quartz cell (FIG. 9E). The stock solution of monomeric amylin in 100% HFIP was diluted to 4% HFIP in 100 mM potassium chloride/50 mM potassium phosphate buffer (pH 7.4) containing 200 μM Amaranth. Human amylin concentration was approximately 4 μM. Spectra were collected at 1 nm intervals in a 0.1 cm path length quartz cell (FIG. 9F).

human amylin [2] = target: T1, human amylin; experiment: Electron microscopy of human amylin fibrils; format: biochemical; parameters: Amylin is a 37-residue; C-terminally amidated peptide having a disulfide bridge between the cysteines at residues 2 and 7; purchased Bachem Calif; (Torrance, Calif.); host or cells: chemical synthesis; conditions: 1200 μM compound, 60 μM human amylin, 10 mM tris pH 7.4, 24 h (FIG. 6)
Description: Electron Microscopy. […] Samples were removed at various time points and prepared for electron microscopy. Aliquots (8 μl) of the amylin fibril preparations were absorbed to glow-discharged carbon-coated collodion film on 200-mesh copper grids for 1 min. Grids were blotted, washed twice in droplets of deionised water and stained with 2% (w/v) uranyl acetate. Grids were examined in a Phillips Technai transmission electron microscope operated at 120 kV.
Samples were removed at various time points and prepared for electron microscopy according to the procedure described in the methods.
Electron Microscopy of human amylin fibrils in the presence and absence of quinacrine (FIG. 5). A 100 fold molar excess of quinacrine was incubated with human amylin. Samples were removed at various time points and prepared for electron microscopy according to the procedure described in the methods.
Electron Microscopy of human amylin fibrils in the presence and absence of selected polycyclic compounds (FIG. 6). […] Samples were removed and prepared for electron microscopy as described in the Methods. All experiments were performed in triplicate and the pictures above are representative of at least 6 photographs taken at each magnification.

Substance: Congo red
- protection against cytotoxic effects of human amylin (RINm5F cells; 30 μM human amylin, 100 μM Congo red (3-fold molar excess), 22 h): inhibited the cytotoxic effects of amylin
- intrinsic cytotoxicity of compound to RINm5F β cells (RINm5F cells; relative molar ratios which produced suppression of amyloid aggregation (low μM)): nointrinsic cytotoxic effects
- conformation of human amylin (circular dichroism) (human amylin [1]; 0.8 μM Congo red after 1 hr): β-sheet
- conformation of human amylin (circular dichroism) (human amylin [1]; 0.8 μM Congo red): random coil
- conformation of human amylin (circular dichroism) (human amylin [1]; 4 μM Congo red): α-helix
- conformation of human amylin (circular dichroism) (human amylin [1]; 200 μM Congo red): α-helix
- effect on β-sheet conformer formation of human amylin (circular dichroism) (human amylin [1]; 20-fold molar excess of Congo red, approximately 5 μM human amylin, 2.5% HFIP, pH 7.4 (FIG. 9D)): prevents formation of β-sheet conformers
- time amylin remains stable in α-helical structure (human amylin [1]; excess of Congo red): at least 24 hr
- morphology of human amylin fibrils (electron microscopy) (human amylin [2]): still formed characteristic amylin fibrils
